Results: patent US10174016B2 (BAYER AKTIENGESELLSCHAFT, priority 2014, dated 2019)
pIC50: −log10 of the molar value. Read-outs that look alike come from different tables or passages of the source.

Key:
[1] = molecular target: human P2X2/3 receptor (Homo sapiens (Human), UniProt P56373+Q9UBL9); assay: Intracellular calcium measurement (FLIPR, Fluo-4) of antagonist activity at human P2X2/3 receptors; assay type: cell-based; details: human P2X2/3, FLIPR calcium assay, agonist α,β-Me-ATP; read-out: hP2X2/3 IC50
Chain of human P2X2/3 receptor (P56373 whole entry): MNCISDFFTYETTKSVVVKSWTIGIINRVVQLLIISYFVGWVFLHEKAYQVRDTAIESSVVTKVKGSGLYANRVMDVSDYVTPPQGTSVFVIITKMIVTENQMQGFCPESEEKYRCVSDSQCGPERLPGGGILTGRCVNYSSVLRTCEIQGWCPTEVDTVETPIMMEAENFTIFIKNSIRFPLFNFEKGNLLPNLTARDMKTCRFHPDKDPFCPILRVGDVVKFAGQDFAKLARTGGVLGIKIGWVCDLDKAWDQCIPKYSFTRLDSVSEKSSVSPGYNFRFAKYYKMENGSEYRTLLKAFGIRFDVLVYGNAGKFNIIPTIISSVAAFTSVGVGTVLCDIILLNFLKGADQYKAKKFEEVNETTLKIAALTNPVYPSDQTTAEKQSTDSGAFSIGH
Chain of human P2X2/3 receptor (Q9UBL9 whole entry): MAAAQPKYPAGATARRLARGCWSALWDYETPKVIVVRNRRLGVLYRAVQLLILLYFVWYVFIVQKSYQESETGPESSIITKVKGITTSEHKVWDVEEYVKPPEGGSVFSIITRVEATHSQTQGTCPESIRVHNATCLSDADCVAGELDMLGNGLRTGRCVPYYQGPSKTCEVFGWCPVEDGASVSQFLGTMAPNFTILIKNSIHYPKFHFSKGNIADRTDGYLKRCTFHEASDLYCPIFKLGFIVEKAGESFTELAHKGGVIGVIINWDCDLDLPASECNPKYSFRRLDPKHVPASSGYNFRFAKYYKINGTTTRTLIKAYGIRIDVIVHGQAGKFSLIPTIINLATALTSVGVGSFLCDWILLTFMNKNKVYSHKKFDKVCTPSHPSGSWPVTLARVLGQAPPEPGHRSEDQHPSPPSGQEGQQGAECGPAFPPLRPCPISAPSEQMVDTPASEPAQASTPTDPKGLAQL
Summary of the method: (§1)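 Cells expressing human P2X3 or P2X2/3, loaded with Fluo-4, preincubated 30 min at 37° C. with compound (1% DMSO final), then challenged with α,β-Me-ATP at its EC80. Peak FLIPR fluorescence over 90 sec gave % response; IC50, maximal inhibition and Hill slope from triplicates.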

[2] = molecular target: human P2X3 receptor (Homo sapiens (Human), UniProt P56373); assay: Intracellular calcium measurement (FLIPR, Fluo-4) of antagonist activity at human P2X3 receptors; assay type: cell-based; details: read-out: hP2X3 IC50
Chain of human P2X3 receptor (P56373 whole entry): as the sequence (P56373 whole entry) above
Summary of the method: as §1

[3] = human P2X3, FLIPR calcium assay, agonist α,β-Me-ATP

Compound	pIC50 [1]	pIC50 [2, 3]	pIC50 [2]
CC(C)c1cnc(-c2cc(OC[C@H]3CCOC3)cc(C(=O)N[C@H](C)c3ccc(C(F)(F)F)nn3)c2)s1 [Example 298, 3-[5-(propan-2-yl)-1,3-thiazol-2-yl]-5-[(3S)-tetrahydrofuran-3-ylmethoxy]-N-{(1R)-1-[6-(trifluoromethyl)pyridazin-3-yl]ethyl}benzamide]	6.11	7.21	–
CC(C)c1cnc(-c2cc(OC[C@H]3CCCO3)cc(C(=O)N[C@H](C)c3ccc(C(F)(F)F)nn3)c2)s1 [Example 299, 3-[5-(propan-2-yl)-1,3-thiazol-2-yl]-5-[(2R)-tetrahydrofuran-2-ylmethoxy]-N-{(1R)-1-[6-(trifluoromethyl)pyridazin-3-yl]ethyl}benzamide]	6.24	7.43	–
C[C@@H](NC(=O)c1cc(OC[C@@H]2CCCO2)cc(-c2ncc(C3CCC3)s2)c1)c1ccc(C(F)(F)F)nn1 [Example 300, 3-(5-cyclobutyl-1,3-thiazol-2-yl)-5-[(2S)-tetrahydrofuran-2-ylmethoxy]-N-{(1R)-1-[6-(trifluoromethyl)pyridazin-3-yl]ethyl}benzamide]	6.09	7.11	–
CC(C)c1cnc(-c2cc(OC[C@@H]3CCCO3)cc(C(=O)N[C@H](C)c3ccc(C(F)(F)F)nn3)c2)s1 [Example 301, 3-[5-(propan-2-yl)-1,3-thiazol-2-yl]-5-[(2S)-tetrahydrofuran-2-ylmethoxy]-N-{(1R)-1-[6-(trifluoromethyl)pyridazin-3-yl]ethyl}benzamide]	5.77	7.04	–
CCc1cnc(-c2cc(OC[C@@H]3CCCO3)cc(C(=O)N[C@H](C)c3ccc(C(F)(F)F)nn3)c2)s1 [Example 302, 3-(5-ethyl-1,3-thiazol-2-yl)-5-[(2S)-tetrahydrofuran-2-ylmethoxy]-N-{(1R)-1-[6-(trifluoromethyl)pyridazin-3-yl]ethyl}benzamide]	6.84	8.22	–
Cc1cnc(-c2cc(OC3CCN(CC(F)F)CC3)cc(C(=O)N[C@H](C)c3cnc(C(F)(F)F)nc3)c2)s1 [Example 304]	7.57	–	8.15
Cc1ccc([C@@H](C)NC(=O)c2cc(OC3CCN(CC(F)F)CC3)cc(-c3ncc(C)s3)c2)nn1 [Example 305, 3-{[1-(2,2-difluoroethyl)piperidin-4-yl]oxy}-N-[(1R)-1-(6-methylpyridazin-3-yl)ethyl]-5-(5-methyl-1,3-thiazol-2-yl)benzamide]	7.36	8.05	–
Cc1cnc([C@@H](C)NC(=O)c2cc(OC3CCN(CC(F)F)CC3)cc(-c3ncc(C)s3)c2)cn1 [Example 306, 3-{[1-(2,2-difluoroethyl)piperidin-4-yl]oxy}-N-[(1R)-1-(5-methylpyrazin-2-yl)ethyl]-5-(5-methyl-1,3-thiazol-2-yl)benzamide]	6.33	7.38	–
Cc1ccc(CNC(=O)c2cc(OC3CCN(CC(F)F)CC3)cc(-c3ncc(C)s3)c2)nn1 [Example 307, 3-{[1-(2,2-difluoroethyl)piperidin-4-yl]oxy}-N-[(6-methylpyridazin-3-yl)methyl]-5-(5-methyl-1,3-thiazol-2-yl)benzamide]	6.99	–	7.80
Cc1cnc(-c2cc(OC3CCN(CC(F)F)CC3)cc(C(=O)N[C@@H](C)c3cnc(C(F)(F)F)nc3)c2)s1 [Example 308, 3-{[1-(2,2-difluoroethyl)piperidin-4-yl]oxy}-5-(5-methyl-1,3-thiazol-2-yl)-N-{(1S)-1-[2-(trifluoromethyl)pyrimidin-5-yl]ethyl}benzamide]	5.59	6.82	–
Cc1ncc([C@@H](C)NC(=O)c2cc(OC3CCN(CC(F)F)CC3)cc(-c3ncc(C)s3)c2)cn1 [Example 309, 3-{[1-(2,2-difluoroethyl)piperidin-4-yl]oxy}-N-[(1R)-1-(2-methylpyrimidin-5-yl)ethyl]-5-(5-methyl-1,3-thiazol-2-yl)benzamide]	7.15	8.10	–
